Data set [1] has as its system Fusarium solani (ATCC36031). Nature of the data set: Minimal inhibitory concentration (MIC), twofold broth dilution. The class given is cell-based. The following applies: fungi; lowest concentration inhibiting growth by more than 90%. The procedure:
(§1) Bacteria cells were grown overnight at 37° C. in MH broth to a mid-log phase and diluted to 10^4 to 10^5 CFU ml^−1. A twofold dilution series of 100 μl product solution in MH broth (YM broth for the fungi C. albicans and F. solani) was made on 96-well microplate, followed by the addition of 100 μl bacterial suspension (10^4 to 10^5 CFU mL^−1). The plates were incubated at 37° C. for 18-24 h (28° C., 36-48 h for fungi), and the absorbance at 600 nm was measured with a microplate reader (BIO-RAD, US). Positive control was without product, and negative control was without bacteria/fungi inoculum. MICs were determined as the lowest concentration that inhibited cell growth by more than 90%.
(In general: Broth dilution looks for growth in wells or tubes with falling amounts of substance.)

In data set [2] the test system is Pseudomonas aeruginosa (ATCC9027). The data set is described as above. The class given is cell-based. Conditions: Gram-negative; lowest concentration inhibiting growth by more than 90%. The procedure: as §1
In data set [3] the test system is Staphylococcus aureus (ATCC6538). Described as above. It counts as cell-based. Conditions: Gram-positive; lowest concentration inhibiting growth by more than 90%. The procedure: as §1
Data set [4] has as its system Candida albicans (ATCC10231). Described as above. Conditions: fungi; lowest concentration inhibiting growth by more than 90%. The class given is cell-based. The method, then: as §1
The test system of data set [5] is Escherichia coli (ATCC8739). The data set is described as above. It counts as cell-based. Conditions: Gram-negative; lowest concentration inhibiting growth by more than 90%. The method, then: as §1
The subject of data set [6] is human red blood cells. The following applies: cited from earlier work.
The test system of data set [7] is Escherichia coli (ATCC8739). Conditions: comparator agents (#3A-#6E), previously reported; cited from earlier work.
For data set [8], the system named is human red blood cells. Nature of the data set: Hemolysis assay. The class given is cell-based. The following applies: for HC50 (the concentration which is 50% hemolytic): human erythrocytes, 1 h at 37° C. The method, then:
Fresh human blood (5 ml) was collected from a healthy donor. Erythrocytes were separated by centrifugation at 1000 rpm for 10 min, washed three times with Tris buffer (10 mM Tris, 150 mM NaCl, pH 7.2) and diluted to final concentration (5%, v/v). 50 μl of antimicrobial solution at different concentrations mixed with 50 μl erythrocytes stock were added to a 96-well microplate and incubated for 1 h at 37° C. with 150 rpm shaking. The microplate were centrifuged at 1,000 rpm for 10 min. 80 μl aliquots of the supernatant were then transferred to a new 96-well microplate and diluted with another 80 μl of Tris buffer. Hemolysis was measured as the absorbance at 540 nm with a microplate reader (BIO-RAD, US). Complete hemolysis was determined in Tris buffer plus 0.1% Triton x-100 as positive control, while Tris buffer was used as negative control. The percentage of hemolysis (H) was calculated using the following equation: Hemolysis=[(Op−Ob)/(Ot−Ob)]×100%, where Op is the density for a given antimicrobial agent concentration, Ob is the density for the buffer, and Ot is the density for the Triton x-100 positive control.

Data set [9] deals with the three bacteria (P. aeruginosa, E. coli, S. aureus). Nature of the data set: MIC, summarised over the bacterial pathogens. The following applies: for MIC against the bacterial pathogens: lower bound over the three bacteria. It counts as cell-based. The method, then:
as §1

In data set [10] the test system is all tested bacteria and fungi (P. aeruginosa, E. coli, S. aureus, C. albicans, F. solani). Nature of the data set: MIC, summarised over all pathogens tested. The class given is cell-based. The following applies: for MICs for all pathogens tested: range over Gram-negative, Gram-positive bacteria and fungi. The procedure: as §1
The subject of data set [11] is E. coli, P. aeruginosa, S. aureus, C. albicans, F. solani cells. Nature of the data set: Morphology study of microorganisms (FESEM). Conditions: at MIC concentration, 15 min treatment, compared with intact controls. It counts as cell-based. The method, then: After incubation the microbes were immediately fixed with glutaraldehyde (2.5%, 5 ml) solution for 4 hr. Following dehydration in a graded ethanol series (20%-100%) and drying under a nitrogen flow, the samples were coated with platinum and imaged with FESEM (JEOL JSM-6700F) for microbe morphology changes.

Data set [12] has as its system SMCs and E. coli co-culture. Nature of the data set: Co-culture of bacteria and mammalian cells. Conditions: 100 μg ml^−1, 6 h after inoculation of 1×10^5 E. coli. The class given is cell-based. The procedure:
SMCs were cultured in 96-well plates from inocula of 1×10^5 cells in each well and incubated at 37° C. for 24 h in a culture medium free of any antibiotics. 1×10^5 cells E. coli was seeded in the SMC culture wells. Then CS-g-K16 was added in the SMC and E. coli co-culture wells at a concentration of 100 μg ml^−1. Wells without CS-g-K16 were used as a control. The co-culture was imaged using an inverted optical microscope (Carl Zeiss, Germany).

In a further data set the test system is E. coli membrane. Nature of the data set: Membrane depolarization, DiSC3(5) dye leakage. The class given is cell-based, Escherichia coli. Conditions: 100 μg ml^−1. The procedure: Bacteria were harvested at mid-log phase, washed three times with a buffer solution of 20 mM glucose and 5 mM HEPES (pH 7.4). The bacteria was resuspended in the washing buffer with additional 0.1 M KCl, then incubated with DiSC3(5) (20 nM) until it was incorporated into the cell membrane. The CS-g-K16 was added at a concentration of 100 μg ml^−1, and the fluorescence was monitored with a fluorescence spectrometer (PerkinElmer LS55, U.S.) at λex=620 nm and λem=670 nm. Finally, 0.2 nM Gramicidin D was added to obtain the full release of the dye.

The subject of another data set is E. coli. Nature of the data set: LIVE/DEAD bacterial viability assay. Conditions: at MIC concentration, 15 min at 37° C. It counts as cell-based, Escherichia coli. The procedure:
LIVE/DEAD assay was carried out using CS-g-K16 with E. coli. […] After incubation the cells were collected by centrifugation and stained with BacLight bacterial viability kit L13152 (Invitrogen) for 30 min at room temperature. The cells were then imaged with fluorescence microscopy (Carl Zeiss, Germany).

Converted amounts (≈) assume the structure as drawn. “Also recorded” adds a separate entry of the source. Like-named read-outs stand apart in the source and are kept apart here.

chitosan-graft-polylysine [CS-g-K25]: the “MIC F. solani” value in data set [1] came out at 5 µg/mL. The “MIC P. aeruginosa” value in data set [2] is 40 µg/mL. In [3], the “MIC S. aureus” value worked out at 10 µg/mL. For the same compound, the “MIC C. albicans” value in data set [4] worked out at 20 µg/mL. The “MIC E. coli” value in data set [5] worked out at 10 µg/mL.

With Magainin-2, the “HC50 (the concentration which is 50% hemolytic)” value with human red blood cells [6] was above 250 µg/mL. In data set [7], the “MIC E. coli” value was 125 µg/mL.

“chitosan-graft-poly(lysine-ran-phenylalanine) [CS-g-K8F8]”: in data set [1], the “MIC F. solani” value was 160 µg/mL. The “MIC P. aeruginosa” value in data set [2] is above 2500 µg/mL. The “MIC S. aureus” value in data set [3] came out at 2500 µg/mL. The “MIC C. albicans” value in data set [4] was above 2500 µg/mL. Besides, the “MIC E. coli” value in [5] was above 2500 µg/mL. Besides, in the data set with human red blood cells [8], the “HC50 (the concentration which is 50% hemolytic)” value was determined as 12500 µg/mL. In data set [9], the “MIC against the bacterial pathogens” value was at least 2500 µg/mL.

As for chitosan-graft-polylysine [CS-g-K3], in data set [1], the “MIC F. solani” value is 10 µg/mL. Also, in data set [2], the “MIC P. aeruginosa” value is 20 µg/mL. In addition, the “MIC S. aureus” value in data set [3] amounted to 40 µg/mL. Further, the “MIC C. albicans” value in data set [4] amounted to 20 µg/mL. Moreover, the “MIC E. coli” value in [5] was 20 µg/mL.

With “chitosan-graft-poly(lysine-ran-phenylalanine) [CS-g-K12.5F12.5]”, the “MIC F. solani” value in data set [1] is 80 µg/mL. For the same compound, in [2], the “MIC P. aeruginosa” value was determined as 1250 µg/mL. Further, the “MIC S. aureus” value in [3] worked out at 1250 µg/mL. In data set [4], the “MIC C. albicans” value is 310 µg/mL. In [5], the “MIC E. coli” value is 630 µg/mL. Also, the “HC50 (the concentration which is 50% hemolytic)” value with human red blood cells [8] stood at 7500 µg/mL. Moreover, the “increase of MICs compared with P(K12.5F12.5) (#5B)” value in data set [9] (for the three bacteria) is reported as “more than 5 times”. The “MIC against the bacterial pathogens” value in data set [9] was at least 630 µg/mL.

Consider chitosan-graft-polylysine [CS-g-K9], for which, in data set [1], the “MIC F. solani” value came to 5 µg/mL. Further, the “MIC P. aeruginosa” value in data set [2] was 20 µg/mL. The “MIC S. aureus” value in [3] turned out to be 20 µg/mL. In data set [4], the “MIC C. albicans” value turned out to be 20 µg/mL. The “MIC E. coli” value in data set [5] was 10 µg/mL. Further, the “MICs for all pathogens tested” value in [10] lay within 5 to 20 µg/mL.

As for chitosan-graft-polylysine [CS-g-K1], in data set [1], the “MIC F. solani” value is 40 µg/mL. Besides, in data set [2], the “MIC P. aeruginosa” value stood at 80 µg/mL. For the same compound, in data set [3], the “MIC S. aureus” value came out at 160 µg/mL. Besides, in data set [4], the “MIC C. albicans” value was 40 µg/mL. Also, the “MIC E. coli” value in [5] came out at 80 µg/mL.

For the compound chitosan-graft-polylysine [CS-g-K3-HMW], in data set [1], the “MIC F. solani” value was 40 µg/mL. The “MIC P. aeruginosa” value in [2] was 310 µg/mL. The “MIC S. aureus” value in data set [3] turned out to be 160 µg/mL. Also, the “MIC C. albicans” value in data set [4] came to 160 µg/mL. In data set [5], the “MIC E. coli” value turned out to be 80 µg/mL. In addition, in data set [10] (same grafting ratio of lysine, higher molecular weight chitosan, all five pathogens), the “MICs relative to those of CS-g-K3 (#1B)” value is at least 4 fold.

Turning to chitosan-graft-polylysine [CS-g-K16], the “MIC F. solani” value in data set [1] came out at 5 µg/mL. Besides, the “MIC P. aeruginosa” value in data set [2] stood at 20 µg/mL. Besides, the “MIC S. aureus” value in data set [3] came out at 10 µg/mL. Besides, the “MIC C. albicans” value in data set [4] turned out to be 20 µg/mL. Further, the “MIC E. coli” value in data set [5] was 10 µg/mL. In the data set on human red blood cells [8], the “HC50 compared with other state-of-the-art antimicrobial polymers” value is listed as 3 to 5 orders of magnitude and the hemolytic percentage result was “below 50%”. Besides, the “morphology of microbial cells (FESEM)” value in data set [11] is listed as “exhibit obvious morphological changes”. The “bacterial growth and SMCs growth in co-culture” value in data set [12] was “inhibits the bacterial growth but permits SMCs growth; also recorded: bacteria were inhibited and SMCs grew well”. Also, the “membrane potential sensitive dye DiSC3(5) leakage” value in the data set with E. coli membrane is listed as “immediate fluorescence increase”. In addition, the “bacterial viability by LIVE/DEAD stain (SYTO 9 / propidium iodide)” value in the data set with E. coli is on record as “renders E. coli cell membrane permeable to propidium iodide”. For the same compound, the “MICs for all pathogens tested” value in [10] was in the range of 5 to 20 µg/mL. In addition, the “MICs against Gram-negative and Gram-positive bacteria and fungi” value in [10] (range over all pathogens) is listed as 5-20 μml^−1.

As to `CC[C@H](C)[C@H](NC(=O)CN)C(=O)NCC(=O)N[C@@H](C)C(=O)N[C@H](C(=O)N[C@@H](CC(C)C)C(=O)N[C@@H](CCCCN)C(=O)N[C@H](C(=O)N[C@@H](CC(C)C)C(=O)N[C@H](C(=O)N[C@H](C(=O)NCC(=O)N[C@@H](CC(C)C)C(=O)N1CCC[C@H]1C(=O)N[C@@H](C)C(=O)N[C@@H](CC(C)C)C(=O)N[C@H](C(=O)N[C@@H](CO)C(=O)N[C@@H](Cc1c[nH]c2ccccc12)C(=O)N[C@H](C(=O)N[C@@H](CCCCN)C(=O)N[C@@H](CCCNC(=N)N)C(=O)N[C@@H](CCCCN)C(=O)N[C@@H](CCCNC(=N)N)C(=O)N[C@@H](CCC(N)=O)C(=O)N[C@@H](CCC(N)=O)C(N)=O)[C@@H](C)CC)[C@@H](C)CC)[C@@H](C)O)[C@@H](C)O)C(C)C)C(C)C` [Melittin], the “HC50 (the concentration which is 50% hemolytic)” value in the data set with human red blood cells [6] (comparator agents (#3A-#6E), previously reported) is 2 µg/mL. Also, in data set [7], the “MIC E. coli” value was 13 µg/mL (≈ 4.57 µM).

The values are drawn from patent US20140228279A1, “CATIONIC PEPTIDOPOLYSACCHARIDES WITH EXCELLENT BROAD- SPECTRUM ANTIMICROBIAL ACTIVITIES AND HIGH SELECTIVITY” (priority 2011, published 2014).
